One molecule from patent US7148193B2, “Compounds that bind to growth hormone receptor” (Antyra, Inc., priority 1997, dated 2006) can be followed below.

Where a SMILES comes first, the peptide text is derived from it. Bridges are numbered along the chain shown (N, C = ends).

In this assay the target is T1, rGHBP (Rattus norvegicus, UniProt P16310).
T1 construct: 1–48 of GHBP; The 3′ oligo used for this reaction encoded the mutation L43R (CTG→AGA); The second PCR reaction amplified the DNA encoding amino acids 38–260; 6xHis; made in house
T1 sequence (P16310 19-278 isoform P16310-2): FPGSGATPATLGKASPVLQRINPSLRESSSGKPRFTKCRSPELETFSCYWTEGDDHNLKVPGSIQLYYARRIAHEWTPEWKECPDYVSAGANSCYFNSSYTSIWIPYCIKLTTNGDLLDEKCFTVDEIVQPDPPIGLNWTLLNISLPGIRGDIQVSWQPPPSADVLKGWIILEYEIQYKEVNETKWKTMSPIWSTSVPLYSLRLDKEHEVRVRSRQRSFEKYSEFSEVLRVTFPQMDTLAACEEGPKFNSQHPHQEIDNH
The assay is described as follows: Time-resolved fluorometric detection (TRFD) of specific bLigand binding to rGHBP and its competition. Particulars: TRFD. The method, then: For this invention, saEu forms a ternary complex with bP and rGHBP (i.e., the rGHBP:bP:saEu complex). As described herein, the TRFD assay is performed using biotinylated GH (bGH) as bLigand. Biotinylated H5-mutant peptides bP#447 (SEQ ID NO:11) and bP#418 (SEQ ID NO:12) are also used as bLigand (see below). The TRFD assay described herein faithfully reports the competition of ligand binding to the active site of rGHR. To perform the TRFD assays, soluble rGHBP is attached to the surface of microtiter wells, then incubated with bP. Unbound bP is than washed away and (sa)Eu is added to complex with receptor bound bP. The rGHBP:bP bound (sa)Eu is then converted into its highly fluorescent state and detected by TRFD.
Wells were coated with rGHBP(100 ng/well) overnight as described. ED50 and IC50 were calculated from analysis of specific bLigand binding to rGHBP. Competitors were added 1 hr prior to addition of bLigand as described.
rGHBP (50–200 μg/ml in 50 mM NaHCO3) was coated onto low-fluorescence MaxiSorp (Nunc) plates (100 μl/well) overnight at 4° C. The plates were blocked with PBS containing 2% non-fat milk and 0.05% BSA for 2 hr at room temperature, followed by three PBS washes. For competitions, serial dilutions of unlabelled growth hormone (0.1 nM-100 nM) or MAb 2C3 (0.67–67 nM) were added to the plates (100 μl/well) and incubated at room temperature for 1–2 hr. Biotinylated peptide or biotinylated GH (10× concentrations) were incubated in blocking buffer for 30 min to decrease non-specific binding. Ten microliters of the 10× concentrated material was added to the plates and incubated at room temperature for 1 hr to overnight.
The plates were then washed five times with Tris-buffered saline (pH 7.5) containing 0.1% Tween-20 (TTBS). To each well, 100 μl of europium-labeled streptavidin in DELFIA assay buffer (100 mM Tris-HCl, pH 7.8; 150 mM NaCl; 0.5% BSA; 0.05% bovine Ig; 0.05% NaN3; 0.01% Tween-20) was added and incubated for 1.5 hr at room temperature. The plates were then washed five times with TTBS and tapped dry. Subsequently, 100 μl of DELFIA enhancement solution (100 mM acetone-potassium hydrogen phthalate, pH 3.2; 15 mM 2-naphtyltrifluoroacetate; […] tri(n-octyl)-phosphine oxide; 0.1% Triton X-100) was added to each well, and the plates were shaken for 10 min at room temperature. Fluorescence of each sample well was measured at 615 nm using a DELFIA 1234 fluorometer (EG&G Wallac). General procedure and references as described by Wallac are available in “Lanthanide labeling for time-resolved fluorometry”: Wallac publication 1244–1126-03.

Regarding `CC(C)C[C@@H]1NC(=O)[C@H](CO)NC(=O)[C@H](CCC(N)=O)NC(=O)[C@@H](NC(=O)[C@H](CC(C)C)NC(=O)[C@H](CC(=O)O)NC(=O)[C@H](CCCCN)NC(=O)[C@H](Cc2ccc(O)cc2)NC(=O)[C@@H](N)CC(=O)O)CSSC[C@@H](C(=O)N[C@@H](C)C(=O)N[C@@H](CCCCN)C(=O)N[C@@H](CCCCN)C(=O)O)NC(=O)[C@H](Cc2c[nH]c3ccccc23)NC(=O)CNC(=O)[C@H](C)NC(=O)[C@H](CC(C)C)NC(=O)[C@H](Cc2c[nH]c3ccccc23)NC(=O)CNC(=O)[C@@H]2CCCN2C(=O)[C@H](Cc2ccc(O)cc2)NC(=O)[C@H]([C@@H](C)O)NC(=O)[C@H](C(C)C)NC(=O)CNC1=O` [H5] (H-DYKDLCQSLGVTYPGWLAGWCAKK-OH; disulfide 6-21; N-terminus and C-terminus assumed), the saturation of receptors result is “could not be saturated”.
